Earlier results, collected in US6107305A, “Use of pyrazolo [3,4-b] pyridine as cyclin dependent kinase inhibitors” (Bristol-Myers Squibb Company, priority 1998, dated 2000).

Columns and labels:
apoptosis = conditions: J. Cell Sci., 108, 2897 (1995)

For `Cn1cnc2c(NCc3ccccc3)nc(NCCO)nc21` [olomucine], the “synergism with known cytotoxic agents in inducing apoptosis” value (apoptosis) is given as “act synergistically with known cytotoxic agents in inducing apoptosis”.

For `CN1CC[C@H](c2c(O)cc(O)c3c(=O)cc(-c4ccccc4Cl)oc23)[C@H](O)C1` [flavopiridol], the “effect of sequence of administration with anticancer agents on cytotoxic activity” value (cytotoxic activity) is given as “affected by the sequence of administration with anticancer agents”.
